Measured values taken from patent publication US11358939B2, “1,4-benzodiazepin-2-one derivatives and use thereof” (priority 2017, dated 2022).

Key:
[1] = tested on: mice in acute confined space hypoxia; assay: Antihypoxic activity, acute confined space hypoxia (CSH); type: in vivo; settings: 10 mg/kg
Protocol: (§1) Studies of pharmacological activity of 3-arylamino-1,3-dihydro-2H-benzo[e][1,4]diazepin-2-ones, namely, their action of appetite, assessment of antihypoxic and antidepressant activity was performed in white male rats with body mass 150-180 g and male mice with body mass 18-22 g. The animals were kept on a standard laboratory diet and natural lighting. Animals of control group were given a water-Tween suspension. Test compounds were administered in a suspension with Tween-80 Reference drugs were the hormone leptin, in 0.0002 mg/kg dose, and a well-known antidepressant amitriptyline (solution for injections in 1 ml vials. Test compounds and the water-Tween suspension were administered in a dose of 0.2 ml/100 g of rat body mass.
Screening of antihypoxic activity was performed using the model of acute confined space hypoxia (CSH). CSH was modeled by placing mice into isolated sealed chambers (V=200 ml). Each group included 10 animals. The observation lasted until the death of the animals. Antihypoxic effect was assessed by the survival duration (in min) compared to control, which was taken as 100%, and according to the calculation of antihypoxic protection ratio (Rpr):Rpr=Tt/Tc, where Tt—average animal survival time in the test group; Tc—average animal survival time in the control group.

[2] = tested on: food consumption by rats; assay: Action on appetite, Anorexia method (liquid food consumption); type: in vivo; settings: for Amount of consumed liquid food during 30 min in ml / Food consumption, % of control: dose 0,1 mg/kg intraperitoneally
Protocol: as §1
The action of the compounds on rat appetite was studied using «norexia» method. For 2 weeks in an experimental equipment the rats were conditioned to consume liquid food. Then a water-Tween suspension of test articles was administered intraperitoneally to conditioned animals one day before the experiment. After 40 minutes the animals were allowed access to liquid food and the amount of consumed food (in ml) of every rat was registered every 30 minutes for 3 hours. The next day after 2 hours of deprivation the rats in control group were administered a water-Tween suspension intraperitoneally, while the test group was administered the test articles. After 40 minutes the animals were allowed access to liquid food and the amount of consumed food (in ml) of every rat was registered every 30 minutes for 3 hours. Then all food consumption values for each rat were summed and compared to control values. The control group has consumed on average 7 ml of liquid food per 30 minutes. The effect was calculated in percentage compared to control.

[3] = tested on: immobility time of mice; assay: Antidepressant activity, Porsolt forced swimming test; type: in vivo
Protocol: as §1
Antidepressant activity was studied using «Porsolt forced swimming test» [15], which models stress in mice by forcing them to swim in a narrow translucent cylinder, filled by ⅓ volume with water at 23-25° C. temperature. Antidepressant action is assessed by the reduction in immobility time, when the animals have minimal amount of paddling, in seconds or percentage compared to control. The animal behavior was registered for 4 minutes after acclimatization for 2 minutes.

[4] = tested on: writhes induced by intraperitoneal acetic acid; settings: prior art section; cited from earlier work
[5] = tested on: writhes induced by intraperitoneal acetic acid; assay: Analgesic activity, acetic acid-induced writhing test (peripheral pain model); type: in vivo
Protocol: Assessment of analgesic activity was performed in a model of peripheral pain based on chemical pain induced by intraperitoneal administration of acetic acid, leading to involuntary contractions of abdominal muscles, termed “writhes”, accompanied by hind leg extension and spine arching. The writhes were induced by 0.75% solution of acetic acid, which was administered intraperitoneally 40 min after intraperitoneal administration of test compounds in 0.001-5 mg/kg dose range. […] Analgesic activity was assessed by the ability of the compounds to reduce the number of writhes in test group compared to control group, and indicated as percentage using the following formula: AA=(Wc−Wt/Wc)×100%,
where AA—analgesic activity in %;
Wc—average number of writhes in control group;
Wt—average number of writhes in test group
Test compounds were studied in comparison with the reference drug sodium diclofenac in 10 mg/kg dose. ED50 was calculated using Prozorovsky method.

[6] = tested on: mice in acute confined space hypoxia; settings: reference drug, ref. [14]; cited from earlier work
[7] = tested on: food consumption by rats; assay: Action on appetite, Anorexia method (liquid food consumption); type: in vivo; settings: leptin dose 20 nM

Compound: O=C1Nc2ccc([N+](=O)[O-])cc2C(c2ccccc2)=NC1Nc1ccccc1[N+](=O)[O-] (stereo not shown)
- melting point: 225 to 227 °C

Compound: O=C1Nc2ccc([N+](=O)[O-])cc2C(c2ccccc2F)=NC1Nc1cccc(Cl)c1 (stereo not shown) [Compound 357]
- Increase of mice survival time during acute confined space hypoxia compared to control [1]: 40.5%
- Amount of consumed liquid food during 30 min in ml [2]: 5,9 ± 2,2 ml
- Food consumption, % of control [2]: 80%

Compound: COC(=O)CN1C(=O)C(Nc2cccc(F)c2)N=C(c2ccccc2)c2cc(Cl)ccc21 (stereo not shown) [Compound 159]
- Reduction of immobility time compared to control ([3]; 1 mg/kg): 32%

Compound: CN(C)CCC=C1c2ccccc2CCc2ccccc21 [amitriptyline, reference compound]
- Reduction of immobility time compared to control ([3]; 1 mg/kg): 40%

Compound: O=C1Nc2ccc([N+](=O)[O-])cc2C(c2ccccc2)=NC1Nc1ccc(Cl)cc1 (stereo not shown) [Compound 250]
- Increase of mice survival time during acute confined space hypoxia compared to control [1]: 70%
- Amount of consumed liquid food during 30 min in ml [2]: 6,3 ± 3,2 ml
- Food consumption, % of control [2]: 85%

Compound: O=C1Nc2ccc(OC(F)(F)F)cc2C(c2ccccc2)=NC1Nc1ccccc1Cl (stereo not shown) [Compound 194]
- Reduction of immobility time compared to control ([3]; 1 mg/kg): 40%
- Reduction in appetite and food consumption compared to control ([2]; Table 6 dose 0,1 mg/kg): 47%
- Amount of consumed liquid food during 30 min in ml [2]: 3,5 ± 2,3 ml
- Food consumption, % of control [2]: 47%

Compound: CCOC1N=C(c2ccccc2)c2cc(Br)ccc2N(CC(=O)OC)C1=O (stereo not shown) [methyl-2-(7-bromo-3-etoxy-2-oxo-5-phenyl-2,3-dihydro-1H-benzo[e][1,4]diazepin-1-yl) acetate]
- ED50, analgesic activity in acetic acid-induced writhing test (prior art) [4]: 0.47 ± 0.15 mg/kg

Compound: CCCOC1N=C(c2ccccc2)c2cc([N+](=O)[O-])ccc2N(CC(=O)OC)C1=O (stereo not shown) [Compound 48, Methyl-2-(7-nitro-2-oxo-5-phenyl-3-propoxy-2,3-dihydro-1H-benzo[e][1,4]di-azepin-1-yl)acetate]
- melting point: 214 to 215 °C
- Writhing inhibition, % of control in 1 mg/kg dose ([5]; compounds Ia, 1 mg/kg intraperitoneally, 40 min before 0.75% acetic acid): 85%
- ED50 ([5]; ip, intraperitoneal, Prozorovsky method): 0.058 ± 0.015 mg/kg

Compound: leptin
- Reduction of immobility time compared to control ([3]; 0.0002 mg/kg): 14%
- Antihypoxic properties [6]: no antihypoxic properties
- Reduction in appetite and food consumption compared to control ([2]; leptin 0.0002 mg/kg): 63%
- Amount of consumed liquid food during 30 min in ml [7]: 2,5 ± 0,2 ml
- Food consumption, % of control [7]: 37%
